According to patent publication US8530460B2, “Azetidine derivatives” (Boehringer Ingelheim International GmbH, priority 2011, dated 2013):

Biological target: human ACC2 (Homo sapiens (Human), UniProt O00763)
Assay: ACC2 assay (spectrophotometric 384 well assay, NADH-linked coupled lactate dehydrogenase/pyruvate kinase)
Type: biochemical
Conditions: hACC2 construct lacking 128 N-terminal amino acids; 25° C., 340 nm, 15 minutes

Chain of human ACC2 (O00763 129-2458): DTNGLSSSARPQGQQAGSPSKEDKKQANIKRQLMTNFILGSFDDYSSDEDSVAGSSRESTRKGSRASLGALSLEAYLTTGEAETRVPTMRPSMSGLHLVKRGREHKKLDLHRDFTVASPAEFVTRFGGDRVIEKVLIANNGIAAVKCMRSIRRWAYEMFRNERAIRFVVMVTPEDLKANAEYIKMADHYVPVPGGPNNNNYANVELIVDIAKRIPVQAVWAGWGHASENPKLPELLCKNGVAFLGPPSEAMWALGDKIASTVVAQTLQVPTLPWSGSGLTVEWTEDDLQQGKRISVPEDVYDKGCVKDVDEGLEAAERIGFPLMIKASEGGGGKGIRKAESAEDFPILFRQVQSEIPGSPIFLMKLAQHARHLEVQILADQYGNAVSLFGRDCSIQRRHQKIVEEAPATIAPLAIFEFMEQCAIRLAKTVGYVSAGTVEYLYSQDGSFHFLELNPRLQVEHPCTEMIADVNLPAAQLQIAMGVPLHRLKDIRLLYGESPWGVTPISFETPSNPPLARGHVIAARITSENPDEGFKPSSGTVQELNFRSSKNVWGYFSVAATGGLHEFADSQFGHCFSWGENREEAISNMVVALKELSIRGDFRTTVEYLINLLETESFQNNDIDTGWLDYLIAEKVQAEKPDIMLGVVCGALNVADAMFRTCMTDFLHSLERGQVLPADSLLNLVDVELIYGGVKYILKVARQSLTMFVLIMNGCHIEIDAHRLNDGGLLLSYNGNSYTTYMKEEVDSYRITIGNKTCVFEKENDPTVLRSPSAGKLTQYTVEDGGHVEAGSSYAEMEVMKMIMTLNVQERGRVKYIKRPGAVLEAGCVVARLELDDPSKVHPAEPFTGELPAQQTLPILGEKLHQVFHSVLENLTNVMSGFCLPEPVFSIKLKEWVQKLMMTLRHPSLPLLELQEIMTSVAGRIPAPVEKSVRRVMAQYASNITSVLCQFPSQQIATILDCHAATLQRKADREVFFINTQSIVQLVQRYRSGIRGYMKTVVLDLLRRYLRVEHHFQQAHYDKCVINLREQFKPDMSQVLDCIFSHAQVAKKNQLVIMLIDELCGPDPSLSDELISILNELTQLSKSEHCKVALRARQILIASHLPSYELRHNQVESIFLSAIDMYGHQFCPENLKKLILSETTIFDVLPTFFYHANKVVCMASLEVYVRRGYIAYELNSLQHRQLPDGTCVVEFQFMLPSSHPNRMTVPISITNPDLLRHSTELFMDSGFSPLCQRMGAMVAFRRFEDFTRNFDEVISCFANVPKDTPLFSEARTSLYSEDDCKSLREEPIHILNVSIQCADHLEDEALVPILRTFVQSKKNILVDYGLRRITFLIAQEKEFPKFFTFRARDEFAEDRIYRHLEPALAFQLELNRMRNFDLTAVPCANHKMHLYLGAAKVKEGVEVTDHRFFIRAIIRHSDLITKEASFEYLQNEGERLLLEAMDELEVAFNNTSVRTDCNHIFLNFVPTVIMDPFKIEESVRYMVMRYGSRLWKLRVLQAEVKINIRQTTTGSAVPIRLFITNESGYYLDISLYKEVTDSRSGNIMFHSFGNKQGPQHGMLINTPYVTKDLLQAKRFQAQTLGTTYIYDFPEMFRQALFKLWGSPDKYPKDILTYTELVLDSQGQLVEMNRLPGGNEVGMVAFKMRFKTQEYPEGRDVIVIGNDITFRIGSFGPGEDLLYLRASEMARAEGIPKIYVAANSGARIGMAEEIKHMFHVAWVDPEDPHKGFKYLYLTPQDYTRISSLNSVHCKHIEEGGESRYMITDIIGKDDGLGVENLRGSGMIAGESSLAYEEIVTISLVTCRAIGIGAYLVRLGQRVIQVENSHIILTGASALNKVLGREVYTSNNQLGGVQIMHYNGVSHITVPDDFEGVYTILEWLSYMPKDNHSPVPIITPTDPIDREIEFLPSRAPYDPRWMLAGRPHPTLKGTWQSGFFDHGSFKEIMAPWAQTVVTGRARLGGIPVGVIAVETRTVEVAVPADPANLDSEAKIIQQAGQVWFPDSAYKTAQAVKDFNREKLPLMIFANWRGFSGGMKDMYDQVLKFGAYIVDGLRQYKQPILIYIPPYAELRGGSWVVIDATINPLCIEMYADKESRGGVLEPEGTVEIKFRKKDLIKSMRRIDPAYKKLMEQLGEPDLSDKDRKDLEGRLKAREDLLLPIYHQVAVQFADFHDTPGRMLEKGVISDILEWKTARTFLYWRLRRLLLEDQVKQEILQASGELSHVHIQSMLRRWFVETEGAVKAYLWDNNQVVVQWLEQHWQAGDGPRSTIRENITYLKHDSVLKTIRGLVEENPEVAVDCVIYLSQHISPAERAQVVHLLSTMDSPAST

| IC50 [nM] | Structure (SMILES) |
| --- | --- |
| 530 | CCOc1ccc(N2CC(Oc3ccc([C@H](C)NC(=O)c4ccnc(NC(C)=O)c4)cc3)C2)cc1 [Example 8.25] |
| 2780 | CCOc1ccc(N2CC(Oc3ccc([C@H](C)NC(=O)CCOC)cc3)C2)cc1 [Example 8.26] |
| 760 | CCOc1ccc(N2CC(Oc3ccc([C@H](C)NC(=O)C4CC(C)C4)cc3)C2)cc1 (stereo partly drawn) [Example 8.27] |
| 170 | CCOc1ccc(N2CC(Oc3ccc([C@H](C)NC(=O)c4sc(NC(C)=O)nc4C)cc3)C2)cc1 [Example 8.28] |
| 410 | CCOc1ccc(N2CC(Oc3ccc([C@H](C)NC(=O)CC)cc3)C2)cc1 [Example 8.29] |
| 1090 | CCOc1ccc(N2CC(Oc3ccc([C@H](C)NC(=O)c4ccno4)cc3)C2)cc1 [Example 8.31] |
| 550 | CCOc1ccc(N2CC(Oc3ccc([C@H](C)NC(=O)c4cnc(NC(C)=O)s4)cc3)C2)cc1 [Example 8.32] |
| 190 | CCOc1ccc(N2CC(Oc3ccc([C@H](C)NC(=O)c4cnco4)cc3)C2)cc1 [Example 8.33] |
| 810 | CCOc1ccc(N2CC(Oc3ccc([C@H](C)NC(=O)c4ccns4)cc3)C2)cc1 [Example 8.34] |
| 3160 | CCOc1ccc(N2CC(Oc3ccc([C@H](C)NC(=O)c4csc(NC(C)=O)n4)cc3)C2)cc1 [Example 8.35] |
| 3040 | CCOc1ccc(N2CC(Oc3ccc([C@H](C)NC(=O)C(C)(C)OC)cc3)C2)cc1 [Example 8.36] |
| 2060 | CCOc1ccc(N2CC(Oc3ccc([C@H](C)NC(=O)c4ccc(C)o4)cc3)C2)cc1 [Example 8.37] |
| 5200 | CCOc1ccc(N2CC(Oc3ccc([C@H](C)NC(=O)C4CNC(=O)C4)cc3)C2)cc1 (stereo partly drawn) [Example 8.39] |
| 350 | CCOc1ccc(N2CC(Oc3ccc([C@H](C)NC(=O)C4CC=CC4)cc3)C2)cc1 [Example 8.40] |
| 510 | CCOc1ccc(N2CC(Oc3ccc([C@H](C)NC(=O)c4cncs4)cc3)C2)cc1 [Example 8.41] |
| 1690 | CCCC(=O)N[C@@H](C)c1ccc(OC2CN(c3ccc(OCC)cc3)C2)cc1 [Example 8.42] |
| 2340 | CCOc1ccc(N2CC(Oc3ccc([C@H](C)NC(=O)CCCNC(C)=O)cc3)C2)cc1 [Example 8.43] |
| 930 | CCOc1ccc(N2CC(Oc3ccc([C@H](C)NC(=O)C4CC(OC)C4)cc3)C2)cc1 (stereo partly drawn) [Example 8.44] |
| 2310 | CCOc1ccc(N2CC(Oc3ccc([C@H](C)NC(=O)c4cccnc4)cc3)C2)cc1 [Example 8.45] |

| IC50 [nM] | Structure (SMILES) |
| --- | --- |
| 1190 | CCOc1ccc(N2CC(Oc3ccc([C@H](C)NC(=O)C4CCOC4)cc3)C2)cc1 (stereo partly drawn) [Example 8.46] |
| 1910 | CCOc1ccc(N2CC(Oc3ccc([C@H](C)NC(=O)COC)cc3)C2)cc1 [Example 8.47] |
| 1100 | CCC(=O)N[C@@H](C)c1ccc(OC2CN(c3ncc(C4CC4)cn3)C2)cc1 [Example 9, (S)—N-(1-(4-(1-(5-Cyclopropylpyrimidin-2-yl)azetidin-3-yloxy)phenyl)ethyl)-propionamide] |
| 340 | C[C@H](NC(=O)N(C)C)c1ccc(OC2CN(c3ncc(C4CC4)cn3)C2)cc1 [Example 10.1] |
| 1170 | CCNC(=O)N[C@@H](C)c1ccc(OC2CN(c3ncc(C4CC4)cn3)C2)cc1 [Example 10.2] |
| 670 | CCOc1ccc(N2CC(Oc3ccc([C@H](C)NC(=O)N(C)C)cc3)C2)cc1 [Example 10.3] |
| 440 | CCNC(=O)N[C@@H](C)c1ccc(OC2CN(c3ccc(OCC)cc3)C2)cc1 [Example 10.4] |
| 480 | CCCOc1ccc(N2CC(Oc3ccc([C@H](C)NC(=O)N(C)C)cc3)C2)c(OC)c1 [Example 10.5] |
| 420 | COC(=O)N[C@@H](C)c1ccc(OC2CN(c3ncc(C4CC4)cn3)C2)cc1 [Example 10.6] |
| 230 | CCOc1ccc(N2CC(Oc3ccc([C@H](C)NC(=O)OC)cc3)C2)cc1 [Example 10.7] |
| 6010 | CCCOc1cc(N2CC(Oc3ccc([C@H](C)NC(C)=O)cc3)C2)ncn1 [Example 11.1, (S)—N-(1-(4-(1-(6-Propoxypyrimidin-4-yl)azetidin-3-yloxy)phenyl)ethyl)acetamide] |
| 10600 | CC(=O)N[C@@H](C)c1ccc(OC2CN(c3cc(OC(C)C)ncn3)C2)cc1 [Example 11.2] |
| 11800 | CCOc1cc(N2CC(Oc3ccc([C@H](C)NC(C)=O)cc3)C2)ncn1 [Example 11.3] |
| 2390 | CC(=O)N[C@@H](C)c1ccc(OC2CN(c3cc(OCC4CC4)ncn3)C2)cc1 [Example 11.4] |
| 3200 | CC(=O)N[C@@H](C)c1ccc(OC2CN(c3cc(OC4CCC4)ncn3)C2)cc1 [Example 11.5] |
| 8280 | CCCOc1nccc(N2CC(Oc3ccc([C@H](C)NC(C)=O)cc3)C2)n1 [Example 11.6] |
| 4120 | CC(=O)N[C@@H](C)c1ccc(OC2CN(c3cc(N(C)CC4CC4)ncn3)C2)cc1 [Example 12.1] |
| 700 | CC(=O)N[C@@H](C)c1ccc(OC2CN(c3ccnc(N(C)CC4CC4)n3)C2)cc1 [Example 12.2] |
| 100 | CC(=O)NC(C)c1ccc(OC2CN(c3ccc(OCC4CC4)cc3)C2)c(F)c1 (stereo not drawn) [Example 13, N-(1-(4-(1-(4-(cyclopropylmethoxy)phenyl)azetidin-3-yloxy)-3-fluorophenyl)ethyl)-acetamide] |

| Structure (SMILES) | IC50 [nM] |
| --- | --- |
| CCOc1ccc(N2CC(Oc3ccc([C@H](C)NC(=O)CF)cc3)C2)cc1 [Example 8.30] | 670 |
